Results taken from patent US20260250320A1, “LIPIDATED PEPTIDE INHIBITORS OF INTERLEUKIN-23 RECEPTOR” (Janssen Pharmaceutica NV, priority 2023, published 2026).
*1 amine or outer side, *2 acyl side, *3 side chain or, on linkers, in order; H or OH if unused. Where a SMILES comes first, the peptide text is derived from it. Bridges are numbered along the chain shown (N, C = ends). Side-chain parts run from the residue outwards. [ ]: non-standard residue; d: D form. The star is where a group is joined. Me3N+CH2CH2(OCH2CH2)4CO = C[N+](C)(C)CCOCCOCCOCCOCCC(=O)*; PEG12 = NCCOCCOCCOCCOCCOCCOCCOCCOCCOCCOCCOCCOCCC(=O)O; X42 = O=C(O)CCCCCCCCCCCCCCCCC(=O)N[C@H](CO)CCC(=O)*; Trp(7-Me) = Cc1cccc2c(C[C@H](N)C(=O)O)c[nH]c12; C20 diacid = O=C(O)CCCCCCCCCCCCCCCCCCC(=O)*; C18 diacid = O=C(O)CCCCCCCCCCCCCCCCC(=O)*; X6 = CN(CC[C@H](N[*:1])C(=O)[*:2])[*:3]; γGlu = O=C(O)[C@H](CCC(=O)[*:2])N[*:1]; 2Nal = N[C@@H](Cc1ccc2ccccc2c1)C(=O)O; AEF = NCCOc1ccc(C[C@H](N)C(=O)O)cc1; X2 = C[N+](C)(C)C[C@@H](CC(=O)O)N*; 3Pal = N[C@@H](Cc1cccnc1)C(=O)O; Lys(Me) = CNCCCC[C@H](N)C(=O)O; NMeK = CN[C@@H](CCCCN)C(=O)O; Pen = CC(C)(S)[C@H](N)C(=O)O; Suc = O=C(CCC(=O)[*:2])[*:1]; Thp = NC1(C(=O)O)CCOCC1; X1 = C[N+](C)(C)CCCCC*; AEEA = NCCOCCOCC(=O)O; Sar = CNCC(=O)O

These molecules were tested on IL-23-stimulated phosphorylated STAT3 in peripheral blood mononuclear cells (PBMCs) (assay: PBMC pSTAT3 Assay). Settings: PBMCs from healthy donors; 30 min preincubation with peptide; IL-23 5 ng/mL for 30 min; phospho-STAT3 by MSD.
Assay type: cell-based
Experimental: Cryopreserved peripheral blood mononuclear cells (PBMCs) from healthy donors were thawed and washed twice in ImmunoCult-XF T cell expansion medium (XF-TCEM) supplemented with CTL anti-aggregate wash. The cells were counted, resuspended at 2-6×10^5 cells per mL XF-TCEM supplemented with penicillin/streptomycin and 100 ng/mL […] (BioLegend, 579404), and cultured in tissue culture flasks coated with anti-CD3 (eBioscience, 16-0037-85 or BD Pharmingen, 555329) at 37° C. in 5% CO2. On day 4 of culture, PBMCs were collected, washed twice in RPMI-1640 supplemented with 0.1% BSA (RPMI-BSA), and incubated in RPMI-BSA in upright tissue culture flasks for ~4 hours at 37° C. in 5% CO2. Following this 'starvation,' a total of 6×10^4 cells in 30 μL RPMI-BSA was transferred into each well of a 384-well plate pre-spotted with peptide or DMSO. The cells were incubated for 30 minutes prior to the addition of […] at a final concentration of 5 ng/mL. The cells were stimulated with cytokine for 30 minutes at 37° C. in 5% CO2, transferred onto ice for 10 minutes, and lysed. Cell lysates were stored at -80° C. until phosphorylated STAT3 was measured using the phospho-STAT panel kit (Meso Scale Discovery, […]). Results are provided below. • A: IC50<0.5 nM; • B: 0.5 nM≤IC50<5 nM; • C: 5 nM≤IC50; • ND: Not determined

Structure (SMILES) | IC50 [nM]
Cc1cccc2c(C[C@@H]3NC(=O)[C@H]([C@@H](C)O)NC(=O)[C@H](CC(=O)N(C)C)NC(=O)[C@@H](NC(=O)CCOCCOCCOCCOCC[N+](C)(C)C)C(C)(C)SSC(C)(C)[C@@H](C(=O)N[C@@H](Cc4ccc(OCCN)cc4)C(=O)N[C@@H](Cc4ccc5ccccc5c4)C(=O)NC4(C(=O)N[C@@H](CCC(=O)O)C(=O)N[C@@H](CC(N)=O)C(=O)N[C@@H](Cc5cccnc5)C(=O)N(C)[C@@H](CCCCNC(=O)CCOCCOCCOCCOCCOCCOCCOCCOCCOCCOCCOCCOCCNC(=O)CC[C@H](NC(=O)CCCCCCCCCCCCCCCCC(=O)O)C(=O)O)C(N)=O)CCOCC4)NC(=O)[C@H](CCN(C)C(=O)CCOCCOCCOCCOCC[N+](C)(C)C)NC3=O)c[nH]c12 [compound 111, cPEG5aCO-Pen(3)-N(N(Me)2)-T-7MeW-Dab(NMecPEG5a)-Pen(3)-AEF-2Nal-THP-E-N-3Pya-NMeK(PEG12gEC18OH)-CONH2] ({Me3N+CH2CH2(OCH2CH2)4CO}-[Pen]D(NMe2)T[Trp(7-Me)][X6](Me3N+CH2CH2(OCH2CH2)4CO)[Pen][AEF][2Nal][Thp]EN[3Pal][NMeK]([PEG12-γGlu-C18 diacid])-NH2; disulfide 1-6) | < 0.5
CC(=O)NCCCC[C@@H]1NC(=O)[C@H](Cc2c[nH]c3c(C)cccc23)NC(=O)[C@H]([C@@H](C)O)NC(=O)[C@H](CC(N)=O)NC(=O)[C@@H](NC(C)=O)C(C)(C)SSC(C)(C)[C@@H](C(=O)N[C@@H](Cc2ccc(OCCCCC[N+](C)(C)C)cc2)C(=O)N[C@@H](Cc2ccc3ccccc3c2)C(=O)NC2(C(=O)N[C@@H](CCCCNC(=O)COCCOCCNC(=O)COCCOCCNC(=O)CC[C@H](NC(=O)CCCCCCCCCCCCCCCCC(=O)O)C(=O)O)C(=O)N[C@@H](CC(N)=O)C(=O)N[C@@H](Cc3ccccn3)C(=O)N(C)CC(N)=O)CCOCC2)NC1=O [compound 85, MeCO-Pen(3)-N-T-7MeW-K(Ac)-Pen(3)-TMAPF-2Nal-THP-K(PEG2PEG2gEC18OH)-N-3Pya-Sar-CONH2] | < 0.5
CC(=O)NCCCC[C@@H]1NC(=O)[C@H](Cc2c[nH]c3c(C)cccc23)NC(=O)[C@H]([C@@H](C)O)NC(=O)[C@H](CC(N)=O)NC(=O)[C@@H](NC(C)=O)C(C)(C)SSC(C)(C)[C@@H](C(=O)N[C@@H](Cc2ccc(OCCCCC[N+](C)(C)C)cc2)C(=O)N[C@@H](Cc2ccc3ccccc3c2)C(=O)NC2(C(=O)N[C@@H](CCCCNC(=O)COCCOCCNC(=O)COCCOCCNC(=O)CC[C@H](NC(=O)CCCCCCCCCCCCCCCCC(=O)O)C(=O)O)C(=O)N[C@@H](N)C(=O)N[C@@H](Cc3ccccn3)C(=O)N(C)CC(N)=O)CCOCC2)NC1=O [compound 86, MeCO-Pen(3)-N-T-7MeW-K(NMecPEG3a)-Pen(3)-AEF-2Nal-THP-K(PEG2PEG2gEC18OH)-N-3Pya-Sar-CONH2] | < 0.5
CC(=O)NCCCC[C@@H]1NC(=O)[C@H](Cc2c[nH]c3c(C)cccc23)NC(=O)[C@H]([C@@H](C)O)NC(=O)[C@H](CC(N)=O)NC(=O)[C@@H](NC(=O)[C@@H](CCCNC(=N)N)NC(C)=O)C(C)(C)SSC(C)(C)[C@@H](C(=O)N[C@@H](Cc2ccc(OCCNC(=O)CCC(=O)N[C@H](CC(=O)O)C[N+](C)(C)C)cc2)C(=O)N[C@@H](Cc2ccc3ccccc3c2)C(=O)NC2(C(=O)N[C@@H](CCC(=O)O)C(=O)N[C@@H](CC(N)=O)C(=O)N[C@@H](Cc3cccnc3)C(=O)N(C)[C@@H](CCCCNC(=O)COCCOCCNC(=O)COCCOCCNC(=O)CC[C@H](NC(=O)CCCCCCCCCCCCCCCCC(=O)O)C(=O)O)C(N)=O)CCOCC2)NC1=O [compound 16, MeCO-r-Pen(3)-N-T-7MeW-K(Ac)-Pen(3)-AEF(d)-2Nal-THP-E-N-3Pya-NMeK(PEG2PEG2gEC18OH)-CONH2] (Ac-[dR][Pen]NT[Trp(7-Me)]K(Ac)[Pen][AEF]([Suc-X2])[2Nal][Thp]EN[3Pal][NMeK]([AEEA-AEEA-γGlu-C18 diacid])-NH2; disulfide 2-7) | < 0.5
CC(=O)NCCCC[C@@H]1NC(=O)[C@H](Cc2c[nH]c3c(C)cccc23)NC(=O)[C@H]([C@@H](C)O)NC(=O)[C@H](CC(N)=O)NC(=O)[C@@H](NC(=O)[C@@H](CCCCNC(=O)COCCOCCNC(=O)COCCOCCNC(=O)CC[C@@H](CO)NC(=O)CCCCCCCCCCCCCCCCC(=O)O)NC(C)=O)C(C)(C)SSC(C)(C)[C@@H](C(=O)N[C@@H](Cc2ccc(OCCNC(=O)CCC(=O)N[C@H](CC(=O)O)C[N+](C)(C)C)cc2)C(=O)N[C@@H](Cc2ccc3ccccc3c2)C(=O)NC2(C(=O)N[C@@H](CCC(=O)O)C(=O)N[C@@H](CC(N)=O)C(=O)N[C@@H](Cc3cccnc3)C(=O)N(C)CC(N)=O)CCOCC2)NC1=O [compound 17, MeCO-k(PEG2PEG2gEC18OH)-Pen(3)-N-T-7MeW-K(Ac)-Pen(3)-AEF(d)-2Nal-THP-E-N-3Pya-Sar-CONH2] (Ac-[dK]([AEEA-AEEA-X42])[Pen]NT[Trp(7-Me)]K(Ac)[Pen][AEF]([Suc-X2])[2Nal][Thp]EN[3Pal][Sar]-NH2; disulfide 2-7) | < 0.5
CC(=O)NCCCC[C@@H]1NC(=O)[C@H](Cc2c[nH]c3c(C)cccc23)NC(=O)[C@H]([C@@H](C)O)NC(=O)[C@H](CCCCNC(=O)COCCOCCNC(=O)COCCOCCNC(=O)CC[C@H](NC(=O)CCCCCCCCCCCCCCCCC(=O)O)C(=O)O)NC(=O)[C@@H](NC(C)=O)C(C)(C)SSC(C)(C)[C@@H](C(=O)N[C@@H](Cc2ccc(OCCN)cc2)C(=O)N[C@@H](Cc2ccc3ccccc3c2)C(=O)NC2(C(=O)N[C@@H](CCCCNC(=O)CCC(=O)N[C@H](CC(=O)O)C[N+](C)(C)C)C(=O)N[C@@H](CC(N)=O)C(=O)N[C@@H](Cc3cccnc3)C(=O)N(C)CC(N)=O)CCOCC2)NC1=O [compound 14, MeCO-Pen(3)-K(PEG2PEG2gEC18OH)-T-7MeW-K(Ac)-Pen(3)-AEF-2Nal-THP-K(d)-N-3Pya-Sar-CONH2] (Ac-[Pen]K([AEEA-AEEA-γGlu-C18 diacid])T[Trp(7-Me)]K(Ac)[Pen][AEF][2Nal][Thp]K([Suc-X2])N[3Pal][Sar]-NH2; disulfide 1-6) | < 0.5

The molecules below were run against T1, IL-23R (Homo sapiens, UniProt Q5VWK5) (assay: IL23R Reporter Assay). Settings: HEK293 cells containing IL-23R, IL-12Rβ1 and STAT-inducible firefly luciferase reporter; 10 ng/mL IL-23 (EC90); 5 h.
T1 construct: HEK293 cells containing IL-23R, IL-12Rβ1 and a firefly luciferase reporter gene driven by a STAT-inducible promoter (Promega); host or cells: HEK293
T1 sequence (Q5VWK5 24-629): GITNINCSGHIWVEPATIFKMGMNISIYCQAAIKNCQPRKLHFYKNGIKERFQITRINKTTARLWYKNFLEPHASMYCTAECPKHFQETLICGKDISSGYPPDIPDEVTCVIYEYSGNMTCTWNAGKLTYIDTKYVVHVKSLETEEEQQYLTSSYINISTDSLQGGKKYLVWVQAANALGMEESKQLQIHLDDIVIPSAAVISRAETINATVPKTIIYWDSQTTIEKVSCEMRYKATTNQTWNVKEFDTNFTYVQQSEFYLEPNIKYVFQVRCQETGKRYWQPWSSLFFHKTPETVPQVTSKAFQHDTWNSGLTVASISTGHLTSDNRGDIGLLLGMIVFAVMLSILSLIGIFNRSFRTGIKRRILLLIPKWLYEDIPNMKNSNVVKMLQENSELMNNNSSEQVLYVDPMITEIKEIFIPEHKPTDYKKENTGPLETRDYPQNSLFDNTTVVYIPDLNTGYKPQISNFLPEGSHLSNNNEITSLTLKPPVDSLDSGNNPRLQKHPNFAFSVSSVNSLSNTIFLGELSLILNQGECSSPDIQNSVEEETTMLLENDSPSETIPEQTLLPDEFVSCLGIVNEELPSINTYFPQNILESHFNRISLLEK
Assay type: cell-based
Experimental: Compounds were serially diluted in 100% (v/v) DMSO) and plated using an Echo acoustic dispenser (Labcyte) into 1536-well non-treated black assay plates (Corning #9146). 3 μL of HEK293 cells containing IL-23R, IL-12Rβ1 and a firefly luciferase reporter gene driven by a STAT-inducible promoter (Promega) were added to the plates (4000 cells/well), followed by 3 μL of 10 ng/mL IL-23 (equivalent to EC90 concentration). After 5 h at 37° C., 5% CO2, 95% relative humidity, cells were placed at 20° C. and treated with BioGlo reagent (Promega) according to the Manufacturer's instructions. Luminescence was measured on a Pherastar FSX (BMG LabTech). Data were normalized to IL-23 treatment (0% inhibition) and 30 μM of control inhibitor (100% inhibition), and IC50 values were determined using a 4-parameter Hill equation.

Structure (SMILES) | IC50 [nM]
CC(=O)N(C)CCCC[C@@H]1NC(=O)[C@H](Cc2c[nH]c3c(C)cccc23)NC(=O)[C@H]([C@@H](C)O)NC(=O)[C@H](CC(=O)N(C)C)NC(=O)[C@@H](NC(=O)CCOCCOCCOCCOCCOCCOCCOCCOCCOCCOCCOCCOCCNC(=O)CC[C@H](NC(=O)CCCCCCCCCCCCCCCCCCC(=O)O)C(=O)O)C(C)(C)SSC(C)(C)[C@@H](C(=O)N[C@@H](Cc2ccc(OCCCCC[N+](C)(C)C)cc2)C(=O)N[C@@H](Cc2ccc3ccccc3c2)C(=O)NC2(C(=O)N[C@@H](CCCCN(C)C(C)=O)C(=O)N[C@@H](CC(N)=O)C(=O)N[C@@H](Cc3cccnc3)C(=O)N(C)CC(=O)N(C)C)CCOCC2)NC1=O [compound 94, HOC20gEPEG12CO-Pen(3)-N(N(Me)2)-T-7MeW-K(NMeAc)-Pen(3)-TMAPF-2Nal-THP-K(NMeAc)-N-3Pya-Sar-CON(Me)2] ({C20 diacid-γGlu-PEG12}-[Pen]D(NMe2)T[Trp(7-Me)][Lys(Me)](Ac)[Pen]Y(X1)[2Nal][Thp][Lys(Me)](Ac)N[3Pal][Sar]-NMe2; disulfide 1-6) | < 50
